This note sets out measurements from US4868171A, “Antibiotic A 40926 N-acylaminoglucuronyl aglycons and antiobiotic A 40926 aglycon” (Gruppo Lepetit S.p.A., priority 1986, dated 1989).

The test system of test [1] is Clostridium perfringens L290 ISS 30543. Nature of the test: microbe, parasite or virus in culture. The class given is cell-based. Particulars: L290ISS30543, 24 h.
A further test has as its system Strep. pyogenes L49 C203. Nature of the test: MIC determination, standard dilution test (Todd-Hewitt broth). The class given is cell-based. The note with it: Streptococcus pyogenes, L49C203, 24 h.
Test [2] has as its system Staph. epidermidis L147 ATCC 12228 (coagulase negative). The test is described as follows: MIC determination, standard dilution test (Isosensitest broth). The class given is cell-based. The note with it: Staphylococcus epidermidis, ATCC12228, 24 h.
Test [3] deals with Strep. pneumoniae L44 UC41. Nature of the test: MIC determination, standard dilution test (Todd-Hewitt broth). The class given is cell-based. The note with it: Streptococcus pneumoniae, 24 h.
Test [4] relates to Strep. faecalis L149 ATCC 7080. Nature of the test: MIC determination, standard dilution test (Isosensitest broth). The class given is cell-based. Particulars: Enterococcus faecalis, ATCC7080, 24 h.
In test [5] the test system is Propionibacterium acnes L1014 ATCC 6919. The test is described as follows: MIC determination, agar dilution (Wilkins-Chalgren agar, anaerobic). The class given is cell-based. Particulars: Cutibacterium acnes, ATCC6919, 48 h. In general terms: Agar dilution tests growth on a series of plates holding different concentrations.
Test [6] deals with Escherichia coli L47 SKF 12140. Nature of the test: MIC determination, standard dilution test (Isosensitest broth). The class given is cell-based. Particulars: L47SKF12140, 24 h.
The next test deals with Staph. aureus L165. The description is as above. The class given is cell-based. Particulars: Staphylococcus aureus.
The subject of test [7] is Mycoplasma gallisepticum L431 S6 Weybridge. Nature of the test: MIC determination, standard dilution test (PPLO broth). The class given is cell-based. Particulars: Mycoplasmoides gallisepticum; PPLO broth + 10% horse serum + 1% glucose, 48 h.
Test [8] has as its system Clostridium difficile L1363 ATCC 9689. The test is described as follows: MIC determination, agar dilution (Wilkins-Chalgren agar, anaerobic). The class given is cell-based. Particulars: Clostridioides difficile, ATCC9689, 48 h.
A further test has as its system S. pyogenes C 203 (L 49). The test is described as follows: Experimental septicemia in the mouse. The class given is in vivo, CD-1 mice infected with S. pyogenes. Particulars: Streptococcus pyogenes, sc, 168 h, subcutaneous immediately after infection, survival on 7th day. The protocol:
The antimicrobial activity of the compounds of the invention is confirmed also in experimental septicemia in the mouse. Control and treatment groups contained ten CD-1 mice (Charles River) weighing 18-22 g. They were infected intraperitoneally with 0.5 ml of bacterial suspension prepared by diluting an overnight culture of S. pyogenes C 203 (L 49) with sterile peptonized saline. Inocula were adjusted so that untreated animals died of septicemia within 48 h. The compounds to be tested were administered subcutaneously immediately after infection. On the 7th day, the ED50 in mg/kg was calculated by the method of Spearman and Karber (D. J. Finney "Statistical Methods in Biological Assay", Griffin, page 524, 1952) from the percentage of surviving animals at each dose.

For test [9], the system named is Haemophilus influenzae L 970 type b ATCC 19418. The test is described as follows: MIC determination, standard dilution test (Brain Heart broth + 1% Supplement C). Particulars: ATCC19418, 48 h. The class given is cell-based.
In test [10] the test system is Strep. mitis L796 (clinical isolate). The test is described as follows: MIC determination, standard dilution test (Todd-Hewitt broth). Particulars: Streptococcus mitis, 24 h. The class given is cell-based.
Test [11] relates to Bacteroides fragilis L1010 ATCC 23745. Nature of the test: MIC determination, agar dilution (Wilkins-Chalgren agar, anaerobic). The class given is cell-based. Particulars: ATCC23745, 48 h.
In test [12] the test system is Neisseria gonorrhoeae L997 ISM68/126. The test is described as follows: MIC determination, standard dilution test (GC base broth + 1% Isovitalex). The class given is cell-based. Particulars: L997ISM68/126, 48 h, CO2-enriched.

Structures are written as SMILES. Values after ≈ are worked out from the molar mass of the structure shown. Some results are limits rather than exact numbers.

As to `CNC1C(=O)NC2Cc3ccc(cc3)Oc3cc4cc(c3O)Oc3ccc(cc3Cl)C(O)C3NC(=O)C(NC(=O)C4NC(=O)C(NC2=O)c2cc(cc(O)c2Cl)Oc2cc1ccc2O)c1ccc(O)c(c1)-c1c(O)cc(O)cc1C(C(=O)O)NC3=O` (stereo not shown) [Antibiotic A 40926 aglycon], the MIC in test [1] was 0.25 µg/mL (≈ 0.206 µM); in the test on Strep. pyogenes L49 C203 it was 0.5 µg/mL (≈ 0.412 µM); in test [2] it was 0.13 µg/mL (≈ 0.107 µM); in test [3], 1 µg/mL (≈ 0.824 µM); in test [4], 0.5 µg/mL (≈ 0.412 µM); in [5], 1 µg/mL (≈ 0.824 µM). Moreover, the MIC in [6] was 128 µg/mL (≈ 106 µM); against Staph. aureus L165 (L165, 24 h, Staph. aureus L165 (10^6 cfu/ml)), 0.25 µg/mL (≈ 0.206 µM); in the test on Staph. aureus L165 (Staph. aureus L165, 24 h, about 10^4-10^5 cfu/ml) it was 0.13 µg/mL (≈ 0.107 µM); in [7], over 128 µg/mL; in test [8] it was 1 µg/mL (≈ 0.824 µM); in test [9] it was 32 µg/mL. The MIC in test [10] was determined as 0.5 µg/mL (≈ 0.412 µM); in [11], 32 µg/mL (≈ 26.4 µM); in test [12] it was 16 µg/mL. The compound further showed a median effective dose (ED50) in the test with S. pyogenes C 203 (L 49) of 6.2 mg/kg.

For orientation: ED50 means the midpoint of the dose-response relation. The low end stands for an effect at a small dose, the high end for a need for a large dose.
